Laboratory results from ChEMBL document CHEMBL4219066, “Identification and Mitigation of Reactive Metabolites of 2-Aminoimidazole-Containing Microsomal Prostaglandin E Synthase-1 Inhibitors Terminated Due to Clinical Drug-Induced Liver Injury” (J Med Chem, 2018).
Values belong to the compound of their own block, whether it stands above or below them.

Legend:
[1] = Drug metabolism in rat hepatocytes assessed as 2-(difluoromethyl)-5-((3-hydroxy-2-methylpropanamido)methyl)-N-(4-methyl-5-(4-(trifluoromethyl)phenyl)-1H-imidazol-2-yl)nicotinamide formation at 2 uM after 4 hrs by LC-MS/MS analysis; type: ADME, cell-based, Hepatocyte
[2] = Drug metabolism in human hepatocytes assessed as 2-(difluoromethyl)-5-((3-hydroxy-2-methylpropanamido)methyl)-N-(4-methyl-5-(4-(trifluoromethyl)phenyl)-1H-imidazol-2-yl)nicotinamide formation at 2 uM after 4 hrs by LC-MS/MS analysis; type: ADME, cell-based, Hepatocyte
[3] = Drug metabolism in rat hepatocytes assessed as 2-(difluoromethyl)-5-((2-hydroxy-2-methylpropanamido)methyl)-N-(4-methyl-5-(4-(trifluoromethyl)phenyl)-1H-imidazol-2-yl)nicotinamide formation at 2 uM after 4 hrs by LC-MS/MS analysis; type: ADME, cell-based, Hepatocyte
[4] = Drug metabolism in dog hepatocytes assessed as 2-(difluoromethyl)-5-((2-hydroxy-2-methylpropanamido)methyl)-N-(4-methyl-5-(4-(trifluoromethyl)phenyl)-1H-imidazol-2-yl)nicotinamide formation at 2 uM after 4 hrs by LC-MS/MS analysis; type: ADME, cell-based, Canis lupus familiaris, Hepatocyte
[5] = Drug metabolism in human hepatocytes assessed as 2-(difluoromethyl)-5-((2-hydroxy-2-methylpropanamido)methyl)-N-(4-methyl-5-(4-(trifluoromethyl)phenyl)-1H-imidazol-2-yl)nicotinamide formation at 2 uM after 4 hrs by LC-MS/MS analysis; type: ADME, cell-based, Hepatocyte
[6] = Drug metabolism in rat hepatocytes assessed as N-carbamimidoyl-2-(difluoromethyl)-5-(isobutyramidomethyl)nicotinamide formation at 2 uM after 4 hrs by LC-MS/MS analysis; type: ADME, cell-based, Hepatocyte
[7] = Drug metabolism in dog hepatocytes assessed as N-carbamimidoyl-2-(difluoromethyl)-5-(isobutyramidomethyl)nicotinamide formation at 2 uM after 4 hrs by LC-MS/MS analysis; type: ADME, cell-based, Canis lupus familiaris, Hepatocyte
[8] = Drug metabolism in human hepatocytes assessed as N-carbamimidoyl-2-(difluoromethyl)-5-(isobutyramidomethyl)nicotinamide formation at 2 uM after 4 hrs by LC-MS/MS analysis; type: ADME, cell-based, Hepatocyte
[9] = Drug metabolism in rat hepatocytes assessed as 2-(difluoromethyl)-5-(methacrylamidomethyl)-N-(4-methyl-5-(4-(trifluoromethyl)phenyl)-1H-imidazol-2-yl)nicotinamide formation at 2 uM after 4 hrs by LC-MS/MS analysis; type: ADME, cell-based, Hepatocyte
[10] = Drug metabolism in rat hepatocytes assessed as 4-methyl-5-(4-(trifluoromethyl)phenyl)-1H-imidazol-2-amine formation at 2 uM after 4 hrs by LC-MS/MS analysis; type: ADME, cell-based, Hepatocyte
[11] = Drug metabolism in human hepatocytes assessed as 4-methyl-5-(4-(trifluoromethyl)phenyl)-1H-imidazol-2-amine formation at 2 uM after 4 hrs by LC-MS/MS analysis; type: ADME, cell-based, Hepatocyte
[12] = Drug metabolism in rat hepatocytes assessed as metabolite M7 formation at 2 uM after 4 hrs by LC-MS/MS analysis; type: ADME, cell-based, Hepatocyte
[13] = Drug metabolism in human hepatocytes assessed as metabolite M7 formation at 2 uM after 4 hrs by LC-MS/MS analysis; type: ADME, cell-based, Hepatocyte
[14] = Drug metabolism in human liver microsomes assessed as metabolite M7 formation at 2 uM in presence of 1:1 ratio of unlabeled GSH and [glycine 13C2,15N]-labelled GSH after 0.5 hrs by HPLC-MS analysis; type: ADME, microsome
[15] = Drug metabolism in human liver microsomes assessed as metabolite M9 formation at 2 uM in presence of 1:1 ratio of unlabeled GSH and [glycine 13C2,15N]-labelled GSH after 0.5 hrs by HPLC-MS analysis; type: ADME, microsome
[16] = Drug metabolism in Sprague-Dawley rat plasma assessed as 2-(difluoromethyl)-5-((3-hydroxy-2-methylpropanamido)methyl)-N-(4-methyl-5-(4-(trifluoromethyl)phenyl)-1H-imidazol-2-yl)nicotinamide formation at 1000 mg/kg, po measured after 2 hrs post dose by LC/MS analysis; type: ADME, organism-based; details: in vivo
[17] = Drug metabolism in Beagle dog plasma assessed as 2-(difluoromethyl)-5-((3-hydroxy-2-methylpropanamido)methyl)-N-(4-methyl-5-(4-(trifluoromethyl)phenyl)-1H-imidazol-2-yl)nicotinamide formation at 300 to 600 mg/kg, po measured after 2 hrs post dose by LC/MS analysis; type: ADME, organism-based, Canis lupus familiaris; details: in vivo
[18] = In vivo drug metabolism in human plasma assessed as 2-(difluoromethyl)-5-((3-hydroxy-2-methylpropanamido)methyl)-N-(4-methyl-5-(4-(trifluoromethyl)phenyl)-1H-imidazol-2-yl)nicotinamide formation HPLC-MS analysis; type: ADME, organism-based
[19] = Drug metabolism in Sprague-Dawley rat plasma assessed as 2-(difluoromethyl)-5-((2-hydroxy-2-methylpropanamido)methyl)-N-(4-methyl-5-(4-(trifluoromethyl)phenyl)-1H-imidazol-2-yl)nicotinamide formation at 1000 mg/kg, po measured after 2 hrs post dose by LC/MS analysis; type: ADME, organism-based; details: in vivo
[20] = Drug metabolism in Beagle dog plasma assessed as 2-(difluoromethyl)-5-((2-hydroxy-2-methylpropanamido)methyl)-N-(4-methyl-5-(4-(trifluoromethyl)phenyl)-1H-imidazol-2-yl)nicotinamide formation at 300 to 600 mg/kg, po measured after 2 hrs post dose by LC/MS analysis; type: ADME, organism-based, Canis lupus familiaris; details: in vivo
[21] = In vivo drug metabolism in human plasma assessed as 2-(difluoromethyl)-5-((2-hydroxy-2-methylpropanamido)methyl)-N-(4-methyl-5-(4-(trifluoromethyl)phenyl)-1H-imidazol-2-yl)nicotinamide formation HPLC-MS analysis; type: ADME, organism-based
[22] = In vivo drug metabolism in human plasma assessed as 2-(difluoromethyl)-5-(methacrylamidomethyl)-N-(4-methyl-5-(4-(trifluoromethyl)phenyl)-1H-imidazol-2-yl)nicotinamide formation HPLC-MS analysis; type: ADME, organism-based
[23] = Drug metabolism in Sprague-Dawley rat plasma assessed as 5-(aminomethyl)-2-(difluoromethyl)-N-(4-methyl-5-(4-(trifluoromethyl)phenyl)-1H-imidazol-2-yl)nicotinamide formation at 1000 mg/kg, po measured after 2 hrs post dose by LC/MS analysis; type: ADME, organism-based; details: in vivo
[24] = Drug metabolism in Sprague-Dawley rat plasma assessed as 4-methyl-5-(4-(trifluoromethyl)phenyl)-1H-imidazol-2-amine formation at 1000 mg/kg, po measured after 2 hrs post dose by LC/MS analysis; type: ADME, organism-based; details: in vivo
[25] = Drug metabolism in Beagle dog plasma assessed as 4-methyl-5-(4-(trifluoromethyl)phenyl)-1H-imidazol-2-amine formation at 300 to 600 mg/kg, po measured after 2 hrs post dose by LC/MS analysis; type: ADME, organism-based, Canis lupus familiaris; details: in vivo
[26] = In vivo drug metabolism in human urine assessed as 2-(difluoromethyl)-5-((3-hydroxy-2-methylpropanamido)methyl)-N-(4-methyl-5-(4-(trifluoromethyl)phenyl)-1H-imidazol-2-yl)nicotinamide formation by HPLC-MS analysis; type: ADME, organism-based
[27] = In vivo drug metabolism in human urine assessed as 2-(difluoromethyl)-5-((2-hydroxy-2-methylpropanamido)methyl)-N-(4-methyl-5-(4-(trifluoromethyl)phenyl)-1H-imidazol-2-yl)nicotinamide formation by HPLC-MS analysis; type: ADME, organism-based
[28] = In vivo drug metabolism in human urine assessed as N-carbamimidoyl-2-(difluoromethyl)-5-(isobutyramidomethyl)nicotinamide formation by HPLC-MS analysis; type: ADME, organism-based
[29] = In vivo drug metabolism in human urine assessed as 5-(aminomethyl)-2-(difluoromethyl)-N-(4-methyl-5-(4-(trifluoromethyl)phenyl)-1H-imidazol-2-yl)nicotinamide formation by HPLC-MS analysis; type: ADME, organism-based
[30] = Drug metabolism in rat hepatocytes assessed as 2-chloro-N-(4-cyano-1H-imidazol-2-yl)-5-((3-hydroxy-2,2-dimethylpropanamido)methyl)benzamide formation at 2 uM after 4 hrs by LC-MS/MS analysis; type: ADME, cell-based, Hepatocyte
[31] = Drug metabolism in human hepatocytes assessed as 2-chloro-N-(4-cyano-1H-imidazol-2-yl)-5-((3-hydroxy-2,2-dimethylpropanamido)methyl)benzamide formation at 2 uM after 4 hrs by LC-MS/MS analysis; type: ADME, cell-based, Hepatocyte
[32] = Drug metabolism in rat hepatocytes assessed as 2-(2-chloro-5-(pivalamidomethyl)benzamido)-1H-imidazole-4-carboxylic acid formation at 2 uM after 4 hrs by LC-MS/MS analysis; type: ADME, cell-based, Hepatocyte
[33] = Drug metabolism in human hepatocytes assessed as 2-(2-chloro-5-(pivalamidomethyl)benzamido)-1H-imidazole-4-carboxylic acid formation at 2 uM after 4 hrs by LC-MS/MS analysis; type: ADME, cell-based, Hepatocyte
[34] = Drug metabolism in rat hepatocytes assessed as metabolite M2 formation at 2 uM after 4 hrs by LC-MS/MS analysis; type: ADME, cell-based, Hepatocyte
[35] = Drug metabolism in human hepatocytes assessed as metabolite M2 formation at 2 uM after 4 hrs by LC-MS/MS analysis; type: ADME, cell-based, Hepatocyte
[36] = Drug metabolism in human hepatocytes assessed as 2-(2-chloro-5-((3-hydroxy-2,2-dimethylpropanamido)methyl)benzamido)-N-phenyl-1H-imidazole-4-carboxamide formation at 2 uM after 4 hrs by LC-MS/MS analysis; type: ADME, cell-based, Hepatocyte
[37] = Drug metabolism in rat hepatocytes assessed as 2-chloro-5-(pivalamidomethyl)benzoic acid formation at 2 uM after 4 hrs by LC-MS/MS analysis; type: ADME, cell-based, Hepatocyte
[38] = Drug metabolism in human hepatocytes assessed as 2-chloro-5-(pivalamidomethyl)benzoic acid formation at 2 uM after 4 hrs by LC-MS/MS analysis; type: ADME, cell-based, Hepatocyte
[39] = Drug metabolism in rat hepatocytes assessed as 2-(2-chloro-5-((3-hydroxy-2,2-dimethylpropanamido)methyl)benzamido)-N-phenyl-1H-imidazole-4-carboxamide at 2 uM after 4 hrs by LC-MS/MS analysis; type: ADME, cell-based, Hepatocyte

Drug metabolism [1]: Metabolite_Detected | Drug metabolism [2]: Metabolite_Detected | Drug metabolism [3]: Metabolite_Detected | Drug metabolism [4]: Metabolite_Detected | Drug metabolism [5]: Metabolite_Detected | Drug metabolism [6]: Metabolite_Detected | Drug metabolism [7]: Metabolite_Detected | Drug metabolism [8]: Metabolite_Detected | Drug metabolism [9]: Metabolite_Detected | Drug metabolism [10]: Metabolite_Detected | Drug metabolism [11]: Metabolite_Detected | Drug metabolism [12]: Metabolite_Detected | Drug metabolism [13]: Metabolite_Detected | Drug metabolism [14]: Metabolite_Detected | Drug metabolism [15]: Metabolite_Detected | Drug metabolism [16]: Metabolite_Detected | Drug metabolism [17]: Metabolite_Detected | Drug metabolism [18]: Metabolite_Detected | Drug metabolism [19]: Metabolite_Detected | Drug metabolism [20]: Metabolite_Detected | Drug metabolism [21]: Metabolite_Detected | Drug metabolism [22]: Metabolite_Detected | Drug metabolism [23]: Metabolite_Detected | Drug metabolism [24]: Metabolite_Detected | Drug metabolism [25]: Metabolite_Detected | Drug metabolism [26]: Metabolite_Detected | Drug metabolism [27]: Metabolite_Detected | Drug metabolism [28]: Metabolite_Detected | Drug metabolism [29]: Metabolite_Detected
Structure (SMILES): Cc1nc(NC(=O)c2cc(CNC(=O)C(C)C)cnc2C(F)F)[nH]c1-c1ccc(C(F)(F)F)cc1

Drug metabolism [30]: Metabolite_Detected | Drug metabolism [31]: Metabolite_Detected
Structure (SMILES): CC(C)(C)C(=O)NCc1ccc(Cl)c(C(=O)Nc2nc(C#N)c[nH]2)c1

Drug metabolism [32]: Metabolite_Detected | Drug metabolism [33]: Metabolite_Detected | Drug metabolism [34]: Metabolite_Detected | Drug metabolism [35]: Metabolite_Detected | Drug metabolism [36]: Metabolite_Detected | Drug metabolism [37]: Metabolite_Detected | Drug metabolism [38]: Metabolite_Detected | Drug metabolism [39]: Metabolite_Detected
Structure (SMILES): CC(C)(C)C(=O)NCc1ccc(Cl)c(C(=O)Nc2nc(C(=O)Nc3ccccc3)c[nH]2)c1
